The text below walks through data of patent US20250281519A1, “NUCLEOTIDE AND NUCLEOSIDE THERAPEUTIC COMPOSITIONS, COMBINATIONS AND USES RELATED THERETO” (EMORY UNIVERSITY, priority 2021, published 2025).

Where only a bound is given, the exact number is not on record here.

Data set [1] concerns the target human DNA polymerase alpha (Homo sapiens (Human), UniProt P09884). Briefly: Human DNA polymerase inhibition assay, pol alpha. To be noted: read-out: Human DNA pol α (IC50 uM).
Data set [2] concerns the target human DNA polymerase gamma (Homo sapiens (Human), UniProt P54098). The data set is described as follows: Human DNA polymerase inhibition assay, pol gamma.
Data set [3] has as its target human DNA polymerase beta (Homo sapiens (Human), UniProt P06746). Briefly: Human DNA polymerase inhibition assay, pol beta. The note with it: read-out: Human DNA pol β (IC50 uM).
Data set [4] concerns VZV. The data set is described as follows: Inhibition of DNA virus replication, VZV. In kind it is cell-based. The note with it: Human alphaherpesvirus 3.
Data set [5] concerns HSV-1. Briefly: Inhibition of DNA virus replication, HSV-1. In kind it is cell-based. The note with it: Human alphaherpesvirus 1.
A short description of data set [6]: Cytotoxicity in HepG2 cells (XTT). In kind it is cell-based. The note with it: human, beside HBV. Here is the method: The 50% cytotoxic concentration for the test materials are derived by measuring the reduction of the tetrazolium dye XTT in the treated tissue culture plates. XTT is metabolized by the mitochondrial enzyme NADPH oxidase to a soluble formazan product in metabolically active cells. XTT solution was prepared daily as a stock of 1 mg/mL in PBS. Phenazine methosulfate (PMS) stock solution was prepared at 0.15 mg/mL in PBS and stored in the dark at −20° C. XTT/PMS solution was prepared immediately before use by adding 40 µL of PMS per 1 mL of XTT solution. Fifty microliters of XTT/PMS was added to each well of the plate and the plate incubated for 2-4 hours at 37° C. The 2-4 hour incubation has been empirically determined to be within linear response range for XTT dye reduction with the indicated numbers of cells for each assay. Adhesive plate sealers were used in place of the lids, the sealed plate was inverted several times to mix the soluble formazan product and the plate was read at 450 nm (650 nm reference wavelength) with a Molecular Devices SpectraMax Plus 384 spectrophotometer. Data were collected by Softmax 4.6 software and imported into an Excel spreadsheet for analysis.

The nature of data set [7]: Cytotoxicity in MRC-5 cells (DNA virus table). In kind it is cell-based. To be noted: human, MRC-5 cells; beside HCMV.
Data set [8] has as its system MRC-5 Cells. Briefly: Cytotoxicity in MRC-5 cells (DNA virus table). In kind it is cell-based. The note with it: beside VZV.
Data set [9] deals with HBV. The data set is described as follows: HBV replication in HepG2.2.15 cells (viral DNA by qPCR). In kind it is cell-based. To be noted: Hepatitis B virus. Here is the method: HepG2.2.15 cells (100 μL) in RPMI1640 medium with 10% fetal bovine serum was added to all wells of a 96-well plate at a density of 1×10^4 cells per well and the plate was incubated at 37° C. in an environment of 5% CO2 for 24 hours. Following incubation, six ten-fold serial dilutions of test compound prepared in RPMI1640 medium with 10% fetal bovine serum were added to individual wells of the plate in triplicate. Six wells in the plate received medium alone as a virus only control. The plate was incubated for 6 days at 37° C. in an environment of 5% CO2. The culture medium was changed on day 3 with medium containing the indicated concentration of each compound. One hundred microliters of supernatant was collected from each well for analysis of viral DNA by qPCR and cytotoxicity was evaluated by XTT staining of the cell culture monolayer on the sixth day.
Ten microliters of cell culture supernatant collected on the sixth day was diluted in qPCR dilution buffer (40 μg/mL sheared salmon sperm DNA) and boiled for 15 minutes. Quantitative real time PCR was performed in […] using an Applied Biosystems 7900HT Sequence Detection System and the supporting SDS 2.4 software. […]

The test system of data set [10] is HIV. Briefly: HIV infected PBMC assay. In kind it is cell-based. To be noted: Human immunodeficiency virus 1, PBMC. Here is the method: Fresh human peripheral blood mononuclear cells (PBMCs) were obtained from a commercial source (Biological Specialty) and were determined to be seronegative for HIV and HBV. Depending on the volume of donor blood received, the leukophoresed blood cells were washed several times with PBS. After washing, the leukophoresed blood was diluted 1:1 with Dulbecco's phosphate buffered saline (PBS) and layered over 15 mL of Ficoll-Hypaque density gradient in a 50 ml conical centrifuge tube. These tubes were centrifuged for 30 min at 600 g. Banded PBMCs were gently aspirated from the resulting interface and washed three times with PBS. After the final wash, cell number was determined by Trypan Blue dye exclusion and cells were re-suspended at 1×10^ 6 cells/mL in RPMI 1640 with 15% Fetal Bovine Serum (FBS), 2 mmol/L L-glutamine, 2 μg/mL PHA-P, 100 U/mL penicillin and 100 μg/mL streptomycin and allowed to incubate for 48-72 hours at 37° C. After incubation, PBMCs were centrifuged and resuspended in tissue culture medium. […]
Following addition of test compound to the wells, 50 μL of a predetermined dilution of HIV virus (prepared from 4× of final desired in-well concentration) was added, and mixed well. […] After 7 days in culture, HIV-1 replication was quantified in the tissue culture supernatant by measurement of reverse transcriptase (RT) activity. […]

The nature of data set [11]: Cytotoxicity in Huh-7 cells (DNA virus table). In kind it is cell-based. To be noted: human, Huh-7 cells; beside Adenovirus.
Data set [12] has as its system Huh-7 Cells. Briefly: Cytotoxicity in Huh-7 cells (DNA virus table). In kind it is cell-based. The note with it: beside HSV-1.
Data set [13] relates to HCMV. Briefly: Inhibition of DNA virus replication, HCMV. In kind it is cell-based. The note with it: Human betaherpesvirus 5.
The nature of data set [14]: Cytotoxicity in PBM cells. In kind it is cell-based. The note with it: human, PHA-P-stimulated peripheral blood mononuclear cells (PBMCs); beside HIV.
Data set [15] deals with Adenovirus. Briefly: Inhibition of DNA virus replication, Adenovirus. In kind it is cell-based. The note with it: unidentified adenovirus.
Data set [16] has as its system CV-B3. To be noted: read-out: EC50 against CV-B3; cited from earlier work.
Data set [17] can be described thus: Cytotoxicity in HeLa cells (enterovirus assays). In kind it is cell-based. The note with it: human, line of HRV 26.
For data set [18], the system named is HeLa. Briefly: Cytotoxicity in HeLa cells (enterovirus assays). In kind it is cell-based. The note with it: line of HRV 1059.
Data set [19] relates to EV70. Briefly: CPE reduction assay, EV70. In kind it is cell-based. To be noted: Huh-7; EV70, strain J670/71, Huh7 cells.
Data set [20] relates to COXV A7. Briefly: CPE reduction assay, COXV A7. In kind it is cell-based. The note with it: Huh-7; COXV A7, strain WP Parker, Huh7 cells.
A short description of data set [21]: in vitro. The note with it: human.
Data set [22] has as its system Huh7. The data set is described as follows: Cytotoxicity in Huh7 cells (enterovirus assays).
Data set [23] has as its system COXV A18. The data set is described as follows: CPE reduction assay, COXV A18. In kind it is cell-based. The note with it: Huh-7; COXV A18, strain G13, Huh7 cells.
In data set [24] the test system is HRV. The data set is described as follows: CPE reduction assay, HRV. In kind it is cell-based. The note with it: HeLa.
Data set [25] in a line: Cytotoxicity in MRC-5 cells (enterovirus assays). In kind it is cell-based. The note with it: human, line of EV71 H.
Data set [26] concerns COXV B1. Briefly: CPE reduction assay, COXV B1. In kind it is cell-based. To be noted: Huh-7; COXV B1, strain Conn5, Huh7 cells.
Data set [27] relates to COXV B4. Briefly: CPE reduction assay, COXV B4. In kind it is cell-based. To be noted: Huh-7; COXV B4, strain JVB, Huh7 cells.
Data set [28] concerns COXV B2. The data set is described as follows: CPE reduction assay, COXV B2. In kind it is cell-based. To be noted: COXV B2, strain Ohio 1, Huh7 cells.
The test system of data set [29] is EV68. The data set is described as follows: CPE reduction assay, EV68. In kind it is cell-based. The note with it: EV68, strain US/KY/14-18953, RD cells.
For data set [30], the system named is EV71. The data set is described as follows: CPE reduction assay, EV71. The note with it: Enterovirus A. In kind it is cell-based.
Data set [31] in a line: Cytotoxicity in RD cells (enterovirus assays). In kind it is cell-based. To be noted: human.
Data set [32] deals with COXV B3. The data set is described as follows: CPE reduction assay, COXV B3. In kind it is cell-based.

human DNA polymerase gamma, sequence (P54098 whole entry): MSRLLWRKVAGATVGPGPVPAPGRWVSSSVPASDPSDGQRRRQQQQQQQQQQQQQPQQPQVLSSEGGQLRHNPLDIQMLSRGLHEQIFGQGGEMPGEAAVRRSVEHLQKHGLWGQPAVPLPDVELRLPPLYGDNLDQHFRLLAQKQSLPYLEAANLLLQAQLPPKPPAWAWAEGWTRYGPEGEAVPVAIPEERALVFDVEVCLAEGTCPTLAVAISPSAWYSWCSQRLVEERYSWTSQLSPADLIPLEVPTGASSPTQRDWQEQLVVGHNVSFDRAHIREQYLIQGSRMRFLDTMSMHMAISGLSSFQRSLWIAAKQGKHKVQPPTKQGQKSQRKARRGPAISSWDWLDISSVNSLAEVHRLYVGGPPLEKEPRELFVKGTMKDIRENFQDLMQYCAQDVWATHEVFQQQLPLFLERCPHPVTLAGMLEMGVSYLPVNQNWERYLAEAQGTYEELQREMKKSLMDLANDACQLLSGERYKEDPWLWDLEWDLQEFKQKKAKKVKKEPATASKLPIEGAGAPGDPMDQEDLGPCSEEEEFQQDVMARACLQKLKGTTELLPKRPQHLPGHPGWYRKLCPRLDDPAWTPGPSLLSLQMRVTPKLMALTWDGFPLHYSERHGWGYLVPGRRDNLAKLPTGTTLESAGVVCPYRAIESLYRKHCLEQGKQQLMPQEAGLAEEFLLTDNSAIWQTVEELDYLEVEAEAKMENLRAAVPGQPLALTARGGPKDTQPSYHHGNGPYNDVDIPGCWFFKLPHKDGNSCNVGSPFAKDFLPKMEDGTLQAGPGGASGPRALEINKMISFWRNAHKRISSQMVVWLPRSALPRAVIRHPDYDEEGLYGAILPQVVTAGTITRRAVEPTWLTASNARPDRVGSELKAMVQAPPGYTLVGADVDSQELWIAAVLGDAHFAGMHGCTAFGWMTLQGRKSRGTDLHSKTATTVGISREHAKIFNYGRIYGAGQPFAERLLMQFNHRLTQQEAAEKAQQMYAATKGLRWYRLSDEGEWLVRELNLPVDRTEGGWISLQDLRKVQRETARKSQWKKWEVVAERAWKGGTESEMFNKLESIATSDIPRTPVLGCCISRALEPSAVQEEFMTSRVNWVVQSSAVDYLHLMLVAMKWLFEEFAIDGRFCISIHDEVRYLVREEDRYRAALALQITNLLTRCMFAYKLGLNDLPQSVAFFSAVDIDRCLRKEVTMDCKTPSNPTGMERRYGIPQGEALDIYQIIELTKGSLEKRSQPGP
human DNA polymerase alpha, sequence (P09884 whole entry): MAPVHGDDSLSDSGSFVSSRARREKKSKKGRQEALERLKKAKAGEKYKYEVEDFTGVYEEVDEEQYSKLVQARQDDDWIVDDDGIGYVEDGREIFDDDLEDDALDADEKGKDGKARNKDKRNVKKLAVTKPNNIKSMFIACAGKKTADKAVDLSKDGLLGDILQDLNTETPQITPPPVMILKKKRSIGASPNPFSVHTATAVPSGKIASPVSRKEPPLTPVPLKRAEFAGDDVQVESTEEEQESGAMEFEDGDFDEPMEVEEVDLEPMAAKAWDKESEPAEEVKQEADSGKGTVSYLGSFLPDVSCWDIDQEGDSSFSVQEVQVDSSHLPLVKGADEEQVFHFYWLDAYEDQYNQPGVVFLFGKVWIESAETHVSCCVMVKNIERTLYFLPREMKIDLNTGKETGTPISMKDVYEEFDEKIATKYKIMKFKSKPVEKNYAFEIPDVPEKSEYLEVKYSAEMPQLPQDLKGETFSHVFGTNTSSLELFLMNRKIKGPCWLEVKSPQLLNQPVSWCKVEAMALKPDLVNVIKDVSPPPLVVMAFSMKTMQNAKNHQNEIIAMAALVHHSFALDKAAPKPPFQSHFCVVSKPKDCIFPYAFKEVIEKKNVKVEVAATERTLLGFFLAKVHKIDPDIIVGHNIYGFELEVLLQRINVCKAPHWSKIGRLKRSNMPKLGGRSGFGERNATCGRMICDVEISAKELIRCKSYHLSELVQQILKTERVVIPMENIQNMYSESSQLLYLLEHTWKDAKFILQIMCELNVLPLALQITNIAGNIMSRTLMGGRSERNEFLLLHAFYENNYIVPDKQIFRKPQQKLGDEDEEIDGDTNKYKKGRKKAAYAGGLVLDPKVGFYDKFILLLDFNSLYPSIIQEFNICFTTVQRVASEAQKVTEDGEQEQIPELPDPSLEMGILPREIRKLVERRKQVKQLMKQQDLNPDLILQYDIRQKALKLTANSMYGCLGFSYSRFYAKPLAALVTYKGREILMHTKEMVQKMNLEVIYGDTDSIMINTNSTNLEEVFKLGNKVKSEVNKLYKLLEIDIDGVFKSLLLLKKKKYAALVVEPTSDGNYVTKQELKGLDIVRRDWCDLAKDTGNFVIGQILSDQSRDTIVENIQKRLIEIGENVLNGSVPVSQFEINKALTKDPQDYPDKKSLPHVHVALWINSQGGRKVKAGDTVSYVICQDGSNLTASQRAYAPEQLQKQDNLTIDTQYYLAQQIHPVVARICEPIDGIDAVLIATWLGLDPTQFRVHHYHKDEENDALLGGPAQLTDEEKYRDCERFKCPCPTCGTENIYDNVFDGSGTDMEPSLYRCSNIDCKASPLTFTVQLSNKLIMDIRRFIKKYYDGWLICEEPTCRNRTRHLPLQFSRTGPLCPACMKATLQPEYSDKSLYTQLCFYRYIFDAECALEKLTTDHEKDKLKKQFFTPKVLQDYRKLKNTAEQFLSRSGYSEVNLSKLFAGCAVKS

As to `CC1(O)[C@@H](O)[C@@H](COP(=O)(O)OP(=O)(O)OP(=O)(O)O)O[C@H]1n1ccc(=O)[nH]c1=S` (stereo partly drawn), the IC50 is more than 1000 µM in data set [1], more than 1 mM in data set [2] and 588 µM in [3].

As for `CC(C)OC(=O)[C@H](C)NP(=O)(OC[C@H]1O[C@@H](n2ccc(=O)[nH]c2=S)C(C)(O)[C@H]1O)Oc1ccccc1` (stereo partly drawn), the EC50 in data set [4], in data set [5], in data set [10] and in data set [13] was more than 100 µM in each case. In addition, the CC50 in [6], in data set [7], in data set [8], in data set [11] and in data set [12] was more than 100 µM each time. Further, the IC50 in data set [9] and in data set [15] was more than 100 µM throughout. The same molecule came in with a CC50 at 7 days in data set [14] of more than 100 µM.

Turning to `CN(C)c1ccc(C(=O)O)cc1` [4-Dimethylamino benzoic acid], in data set [16], the EC50 was 9 µM.

`CC(C)(C)C(=O)OCOP(=O)(OCOC(=O)C(C)(C)C)OC[C@H]1O[C@@H](n2ccc(=O)[nH]c2=S)[C@](C)(O)[C@@H]1O` [EIDD-2523]: the CC50 in data set [17] was more than 100 µM; in [18], more than 100 µM; in data set [21] it was 31 µM; in [22] (line of COXV A7 WP Parker) it was 30 µM; in data set [22] (line of COXV A18 G13), 32 µM; in data set [22] (line of COXV B1 Conn5), 31 µM. The CC50 was determined as 34 µM in [22] (line of COXV B2 Ohio 1); 46 µM in [22] (line of COXV B3 HA 201933); 32 µM in data set [22] (line of COXV B3 Nancy); 16 µM in [22] (line of COXV B4 JVB); 32 µM in data set [25]; 91 µM in data set [31] (line of EV68 US/KY/14-18953). The CC50 in data set [31] (line of EV71 Tainan/4643/98) turned out to be 50 µM. Further, the EC50 in data set [19] is 70 nM; in data set [20], 3.37 µM; in [23], 2690 nM; in data set [24] (strain 26, HeLa cells) it was 430 nM; in data set [24] (strain 1059, HeLa cells), 720 nM; in [26], more than 31 µM. Also, the EC50 in [27] is more than 16 µM; in [28] it was 2650 nM; in data set [29], 380 nM; in [30] (MRC5, EV71, strain H, MRC-5 cells), 1.71 µM; in [30] (EV71, strain Tainan/4643/98, RD cells), 5.3 µM; in data set [32] (Huh-7, COXV B3 (printed COXV 83 in the 3rd table), strain HA 201933, Huh7 cells), 9.3 µM. For the same molecule, in data set [32] (Huh-7, COXV B3, strain Nancy, Huh7 cells), the EC50 amounted to 0.38 µM.
